Bounds are passed on as bounds.

Tested on in one assay: not listed separately
Description: Inhibition of human Flag-tagged PI4K3alpha expressed in insect cells preincubated with enzyme followed by PS:PI substrate and ATP addition measured after 60 mins by HTRF Transcreener ADP assay.
Conditions: not given
On the technique in general: In TR-FRET formats the signal depends on donor and acceptor labels being close together.
A word on the IC50: it is the point on the concentration scale where inhibition reaches its midpoint. A low value points to greater potency in that assay. Compound `COCc1ncc(-c2ccc3nn(C)c(C4CCOCC4)c3c2)cc1NS(=O)(=O)c1ccc(F)cc1F` yielded an IC50 of 2 nM.

`COCc1ncc(-c2c3ccc(C4CCOCC4)cc3nn2C)cc1NS(=O)(=O)c1ccc(F)cc1F` gave an IC50 of 5.7 nM.

The compound `COCc1ncc(-c2ccc3nn(C)c(C4=CCOCC4)c3c2)cc1NS(=O)(=O)c1ccc(F)cc1F` gave an IC50 of 3.1 nM.

The compound `CCCn1cnc2ccc(-c3cnc(COC)c(NS(=O)(=O)c4ccc(F)cc4F)c3)cc2c1=O` came in with an IC50 of 1.9 nM.

The compound `COCc1ncc(-c2c3ccc(C4=CCOCC4)cc3nn2C)cc1NS(=O)(=O)c1ccc(F)cc1F` returned an IC50 of 16 nM.

On to `COCCn1cnc2ccc(-c3cnc(COC)c(NS(=O)(=O)c4ccc(F)cc4F)c3)cc2c1=O`, for which 1 nM corresponded to half-maximal inhibition (IC50).

Tested on in another assay: not listed separately
Description: Inhibition of human Flag-tagged PI4K3beta expressed in insect cells preincubated with enzyme followed by PS:PI substrate and ATP addition measured after 60 mins by HTRF Transcreener ADP assay.
Conditions: not given
Turning to `COCc1ncc(-c2ccc3nn(C)c(C4CCOCC4)c3c2)cc1NS(=O)(=O)c1ccc(F)cc1F`, the IC50 worked out at 39 nM.

`COCc1ncc(-c2c3ccc(C4CCOCC4)cc3nn2C)cc1NS(=O)(=O)c1ccc(F)cc1F` showed an IC50 of 300 nM.

Take `COCc1ncc(-c2ccc3nn(C)c(C4=CCOCC4)c3c2)cc1NS(=O)(=O)c1ccc(F)cc1F`: the IC50 came to 98 nM.

`CCCn1cnc2ccc(-c3cnc(COC)c(NS(=O)(=O)c4ccc(F)cc4F)c3)cc2c1=O` came in with an IC50 of 230 nM.

Regarding `COCc1ncc(-c2c3ccc(C4=CCOCC4)cc3nn2C)cc1NS(=O)(=O)c1ccc(F)cc1F`, the IC50 turned out to be 920 nM.

As for `COCCn1cnc2ccc(-c3cnc(COC)c(NS(=O)(=O)c4ccc(F)cc4F)c3)cc2c1=O`, the IC50 came to 130 nM.

Tested on in the next assay: not listed separately
Description: Inhibition of human Flag-tagged PI4K3alpha expressed in insect cells preincubated with enzyme followed by PS:PI substrate and ATP addition measured after 60 mins by ADP-Glo kinase assay.
Conditions: not given
(In ADP-Glo the light output rises with the ADP produced.)
`COC(C)c1ncc(-c2ccc3ncn(-c4ccccc4)c(=O)c3c2)cc1NS(=O)(=O)c1ccc(F)cc1F` (racemic) came in with an IC50 of 100 nM.

Take `COc1ncc(-c2ccc3ncn(-c4ccccc4)c(=O)c3c2)cc1S(=O)(=O)Nc1ccc(F)cc1F`: half-maximal inhibition (IC50) required 190 nM.

`COc1ncc(-c2ccc3ncn(-c4ccccc4)c(=O)c3c2)cc1NS(=O)(=O)c1ccc(F)cc1F` gave an IC50 of 14 nM.

On to `COc1ncc(-c2ccc3ncn(-c4ccccc4)c(=O)c3c2)cc1CS(=O)(=O)c1ccc(F)cc1F`, for which the IC50 was more than 1000 nM.

The compound `COCc1ncc(-c2ccc3ncn(-c4ccccc4)c(=O)c3c2)cc1NS(=O)(=O)c1ccc(F)cc1F` returned an IC50 of 4.1 nM.

The test system of another assay is Hepatitis C virus. Description: Antiviral activity against HCV genotype 1b Con1 infected in human Huh5-2 cells co-expressing subgenomic HCV replicon NS3 assessed as reduction in viral replication after 2 days by luciferase reporter gene assay. The settings on record: genotype 1b Con1, Huh-5-2, 48 h. Format: functional, cell-based, Hepacivirus hominis. On the technique in general: Replicon systems follow genome replication, usually without infectious particles.
As a reminder, the EC50 is the concentration giving half of the maximal effect. In the case of `COC(C)c1ncc(-c2ccc3ncn(-c4ccccc4)c(=O)c3c2)cc1NS(=O)(=O)c1ccc(F)cc1F` (racemic), the EC50 amounted to 400 nM.

`COc1ncc(-c2ccc3ncn(-c4ccccc4)c(=O)c3c2)cc1S(=O)(=O)Nc1ccc(F)cc1F`: the EC50 came out at 99 nM.

With `COc1ncc(-c2ccc3ncn(-c4ccccc4)c(=O)c3c2)cc1CS(=O)(=O)c1ccc(F)cc1F`, the EC50 is more than 30000 nM.

With `COCc1ncc(-c2ccc3nn(C)c(C4CCOCC4)c3c2)cc1NS(=O)(=O)c1ccc(F)cc1F`, the EC50 was found to be 29 nM.

`COCc1ncc(-c2c3ccc(C4CCOCC4)cc3nn2C)cc1NS(=O)(=O)c1ccc(F)cc1F`: the EC50 was 31 nM.

With `COCc1ncc(-c2ccc3nn(C)c(C4=CCOCC4)c3c2)cc1NS(=O)(=O)c1ccc(F)cc1F`, the EC50 was found to be 50 nM.

Regarding `CCCn1cnc2ccc(-c3cnc(COC)c(NS(=O)(=O)c4ccc(F)cc4F)c3)cc2c1=O`, the EC50 was determined as 10 nM.

As to `COCc1ncc(-c2c3ccc(C4=CCOCC4)cc3nn2C)cc1NS(=O)(=O)c1ccc(F)cc1F`, the EC50 was 78 nM.

Regarding `COCc1ncc(-c2ccc3ncn(-c4ccccc4)c(=O)c3c2)cc1NS(=O)(=O)c1ccc(F)cc1F`, the EC50 was determined as 20 nM.

Consider `COCCn1cnc2ccc(-c3cnc(COC)c(NS(=O)(=O)c4ccc(F)cc4F)c3)cc2c1=O`, for which the EC50 was found to be 13 nM.

The next assay is filed under the species Homo sapiens. The assay is described as follows: Selectivity ratio of IC50 for human Flag-tagged PI4K3beta expressed in insect cells to IC50 for human Flag-tagged PI4K3alpha expressed in insect cells.
Conditions: not given
Consider `COC(C)c1ncc(-c2ccc3ncn(-c4ccccc4)c(=O)c3c2)cc1NS(=O)(=O)c1ccc(F)cc1F` (racemic), for which the Ratio IC50 is more than 3000.

Take `COc1ncc(-c2ccc3ncn(-c4ccccc4)c(=O)c3c2)cc1S(=O)(=O)Nc1ccc(F)cc1F`: the Ratio IC50 was more than 160.

In the case of `COc1ncc(-c2ccc3ncn(-c4ccccc4)c(=O)c3c2)cc1NS(=O)(=O)c1ccc(F)cc1F`, the Ratio IC50 turned out to be 56.

For the compound `COc1ncc(-c2ccc3ncn(-c4ccccc4)c(=O)c3c2)cc1CS(=O)(=O)c1ccc(F)cc1F`, the Ratio IC50 was more than 30.

Take `COCc1ncc(-c2ccc3nn(C)c(C4CCOCC4)c3c2)cc1NS(=O)(=O)c1ccc(F)cc1F`: the Ratio IC50 is 20.

In the case of `COCc1ncc(-c2c3ccc(C4CCOCC4)cc3nn2C)cc1NS(=O)(=O)c1ccc(F)cc1F`, the Ratio IC50 was determined as 53.

Take `COCc1ncc(-c2ccc3nn(C)c(C4=CCOCC4)c3c2)cc1NS(=O)(=O)c1ccc(F)cc1F`: the Ratio IC50 was 32.

As for `CCCn1cnc2ccc(-c3cnc(COC)c(NS(=O)(=O)c4ccc(F)cc4F)c3)cc2c1=O`, the Ratio IC50 was 120.

Turning to `COCc1ncc(-c2c3ccc(C4=CCOCC4)cc3nn2C)cc1NS(=O)(=O)c1ccc(F)cc1F`, the Ratio IC50 was 58.

With `COCc1ncc(-c2ccc3ncn(-c4ccccc4)c(=O)c3c2)cc1NS(=O)(=O)c1ccc(F)cc1F`, the Ratio IC50 stood at 1200.

On to `COCCn1cnc2ccc(-c3cnc(COC)c(NS(=O)(=O)c4ccc(F)cc4F)c3)cc2c1=O`, for which the Ratio IC50 was found to be 130.

Tested on in the next assay: not listed separately
Description: Inhibition of human Flag-tagged PI4K3beta expressed in insect cells preincubated with enzyme followed by PS:PI substrate and ATP addition measured after 60 mins by ADP-Glo kinase assay.
Conditions: not given
With `COC(C)c1ncc(-c2ccc3ncn(-c4ccccc4)c(=O)c3c2)cc1NS(=O)(=O)c1ccc(F)cc1F` (racemic), the IC50 is more than 30000 nM.

The compound `COc1ncc(-c2ccc3ncn(-c4ccccc4)c(=O)c3c2)cc1S(=O)(=O)Nc1ccc(F)cc1F` yielded an IC50 of more than 30000 nM.

Consider `COc1ncc(-c2ccc3ncn(-c4ccccc4)c(=O)c3c2)cc1NS(=O)(=O)c1ccc(F)cc1F`, for which it took 780 nM to reach half-maximal inhibition (IC50).

`COc1ncc(-c2ccc3ncn(-c4ccccc4)c(=O)c3c2)cc1CS(=O)(=O)c1ccc(F)cc1F` registered an IC50 of more than 30000 nM.

In turn, `COCc1ncc(-c2ccc3ncn(-c4ccccc4)c(=O)c3c2)cc1NS(=O)(=O)c1ccc(F)cc1F` returned an IC50 of 4900 nM.
